Measured values: patent US9855320B2, “Angiogenin for treatment of glaucoma” (CHUNG-ANG UNIVERSITY INDUSTRY-ACADEMIC COOPERATION …, priority 2011, dated 2018)

What was measured:
[1] = tested on: chronic intraocular pressure increase rat model; test: Intraocular pressure in chronic intraocular pressure increase rat model (episcleral venous electric ablation); type: in vivo
Experimental: 0.05 cc/50 g of Tiletimine and Zolazepam-mixed medicament (Zoletil) and Xylazine (Rompum) were mixed at a ratio of 1:1 and then administered to 20 rats by intramuscular injection, thereby anesthetizing the rats. A limbus periphery was divided into four portions, each of which was then subjected to 2 mm dissection at an interval of 90 degrees, and then, two radial conjunctival excisions were performed on upper dissection periphery. […] After surgical isolation of vein, the vein was lifted up by using 3 mm-width spatula to be spaced apart from the peripheral tissue, and then, was subjected to electric ablation while being careful for the peripheral tissue not to have any thermal damage or any mechanical damage due to contact. Intraocular pressure was consecutively measured three or more times by using Tonopen (Solan, Fla., USA), and only reliable intraocular pressure values within 5 percentile were recorded. 10 eyes of 10 rats were daily treated 4 times with angiogenin 10 μl 2 days before test, and even after espisderal venous electric ablation, 4 times a day at time intervals of 6 hours. The other 10 eyes of the rats, as a control, were consecutively treated in the same manner with physiological saline solution 10 μl before and after the ablation. Before the operation, and 3 days, and 1, 2, 4, and 8 weeks after the operation, intraocular pressure was measured, and the rats were sacrificed to extract eyes therefrom, which were then subjected to tissue examination and immunechemical staining with respect to Brn-3a and CD11b, and a reverse transcription polymerase chain reaction was used to measure CD11b value in retinal tissue.

[2] = tested on: glaucoma white rats; test: Intraocular pressure change due to instillation in glaucoma white rats (day-time and night-time); type: in vivo, rat
Experimental: Male white rats were used to prepare an episcleral venous ablation glaucoma model. The rat was anesthetized and a limbus periphery was divided into four portions, each of which was then subjected to 2 mm dissection at an interval of 90 degrees, and then, two radial conjunctival excisions were performed on upper dissection periphery. […] Episcleral vein is distinguishable because it is located […] than extra ocular muscle, has relatively low fluidity and a relatively large diameter, contains darker blood in vessel, and is connected to peripheral venous plexus. After surgical isolation of vein, the vein was lifted up by using 3 mm-width wooden spatula to be spaced apart from the peripheral tissue, and then, was subjected to electric ablation while being careful for the peripheral tissue not to have any thermal injury or any mechanical injury due to the contact. After the operation, a chloramphenical ophthalmic agent was administered thereto. Intraocular pressure was consecutively measured three or more times by using Tonopen (Solan, Fla., USA), and only reliable intraocular pressure values within 5% or less were recorded. Only used were rats that had higher intraocular pressure than that before the operation by 5 mmHg or more when measured on the first day, the third day, one week and two weeks before and after operation.
Also, steroid-induced glaucoma model was prepared as follows: 1% prednisolone was instilled twice a day in an amount of 4 μl for 30 days, and only rats that had higher intraocular pressure by 5 mmHg or more before operation were used.
White rats were grouped as a physiological saline solution instillation group, an angiogenin (recombinant human angiogenin, R&D systems, USA) 50 μg/ml instillation group, an angiogenin fragment (angiogenin 108-122, SEQ ID NO: 1, BACHEM, USA) instillation group, and a latanoprost 50 μg/ml instillation group, and each group consisted of 6 rats, that is, 12 eyes. Instillation test was repeatedly performed on normal rats and glaucoma model rats. Ophthalmic agent was administered at 8 AM and 8 PM in an amount of 4 μl to compare day-time effects and night-time effects, and 1, 3, 6, 9, 12, and 24 hours after the instillation, intraocular pressure was measured.

“angiogenin: recombinant human angiogenin (R&D systems); 14.4 kDa single chain protein of 123 amino acids, a ribonuclease inducing angiogenesis” gave an average intraocular pressure ([1]; 1 week after the treatment, control 27.8±4.1) of 21.4±6.2 mmHg, an average intraocular pressure ([1]; 2 weeks after the treatment, control 25±3.0) of 20.8±4.0 mmHg and an average intraocular pressure ([1]; 4 weeks after the treatment, control 25.6±1.6) of 23.6±2.0 mmHg. For the same substance, the average intraocular pressure ([1]; 8 weeks after the treatment, control 23.0±2.4) was 21.7±3.4 mmHg, the “average intraocular pressure compared to the control (in words)” value ([1]; 3 days, and 1, 2, and 4 weeks after the episcleral venous injury) was “significantly lower” and the average intraocular pressure ([1]; before test, 10 eyes) was 20.6±1.9 mmHg. The average intraocular pressure ([1]; for 8 weeks (overall average), control 25.4±3.6) was 21.2±3.8 mmHg, the “intraocular pressure difference to the control” value ([1]; third day after the treatment (biggest difference)) was 6.75±0.3 mmHg and the average intraocular pressure ([1]; three days after the treatment, control 27.3±2.9) was 20.7±2.6 mmHg. For the same substance, the “time after instillation up to which significant intraocular pressure reduction effects were retained” value ([2]; day-time instillation test) was “up to 6 hours” and the “time after instillation up to which intraocular pressure reduction effects were retained” value ([2]; night-time instillation) was “up to 12 hours”.
